In PubChem BioAssay AID328 (DTP/NCI, 2004):
Values joined by “and” are separate entries in the source; they are usually repeats but may differ in a detail not shown here. Equal values may be shown once. Inconclusive results and toxic doses are left out. How the source made its calls: active means survival T/C of 150% or more; inactive means T/C below 125% in these data.

Tested on: BDF1 mice, P388 leukemia ip, median survival T/C
Experiment: NCI In Vivo Anticancer Drug Screen. Data for tumor model P388 Leukemia (intraperitoneal) in B6D2F1 (BDF1) mice
Conditions: endpoint: median survival time, higher = longer survival
Procedure, shortened: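 Antitumour effect was judged in vivo: survival in drug-treated mice, normalised to that of vehicle-dosed controls, gives the reported T/C.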

[1] = dose: 25.0 mg/kg/injection, schedule: Q01DX009 (ip), vehicle: saline with Tween-80
[2] = dose: 100.0 mg/kg/injection, schedule: Q01DX009 (ip), vehicle: saline with Tween-80
[3] = dose: 100.0 mg/kg/injection, schedule: Q04DX003 (ip), vehicle: saline with Tween-80
[4] = dose: 200.0 mg/kg/injection, schedule: Q01DX009 (ip), vehicle: saline with Tween-80

Measured: T/C

c1cc2c3c(c1)ncn3CCC2
inactive: dose: 25.0 mg/kg/injection, schedule: Q04DX003 (ip), vehicle: other 100 % of control | dose: 50.0 mg/kg/injection, schedule: Q04DX003 (ip), vehicle: other 100 % of control | dose: 100.0 mg/kg/injection, schedule: Q04DX003 (ip), vehicle: other 95 % of control

CN(C)/N=N/c1[nH]ncc1C(N)=O
inactive: dose: 50.0 mg/kg/injection, schedule: Q01DX009 (ip), vehicle: Klucel (hydroxypropylcellulose) (HPC) 95 % of control | dose: 100.0 mg/kg/injection, schedule: Q01DX009 (ip), vehicle: Klucel (hydroxypropylcellulose) (HPC) 104 % of control | dose: 100.0 mg/kg/injection, schedule: Q04DX003 (ip), vehicle: alcohol 118 % of control | dose: 200.0 mg/kg/injection, schedule: Q04DX003 (ip), vehicle: alcohol 113 % of control

CSC(=S)N/N=C(\C)C1CCCC[N-]1.[I][Zn][I] (stereo not given)
inactive: dose: 12.5 mg/kg/injection, schedule: Q01DX009 (ip), vehicle: saline with Tween-80 109 % of control and 110 % of control and 115 % of control | [1] 109 % of control (2×) and 117 % of control | [2] 118 % of control

COc1ccc(-c2cc(=O)c3c(O)c(OC)c(O)cc3o2)cc1
inactive: dose: 10.0 mg/kg/injection, schedule: Q01DX010 (ip), vehicle: carboxymethylcellulose (CMC) 95 % of control | dose: 20.0 mg/kg/injection, schedule: Q01DX010 (ip), vehicle: carboxymethylcellulose (CMC) 90 % of control | dose: 80.0 mg/kg/injection, schedule: Q01DX010 (ip), vehicle: carboxymethylcellulose (CMC) 95 % of control

CC(=O)Nc1ccc2cnn(C(C)=O)c2c1
inactive: dose: 25.0 mg/kg/injection, schedule: Q01DX009 (ip), vehicle: water 89 % of control | dose: 50.0 mg/kg/injection, schedule: Q01DX009 (ip), vehicle: water 86 % of control | dose: 50.0 mg/kg/injection, schedule: Q04DX003 (ip), vehicle: water 113 % of control | dose: 100.0 mg/kg/injection, schedule: Q01DX009 (ip), vehicle: water 88 % of control | dose: 100.0 mg/kg/injection, schedule: Q04DX003 (ip), vehicle: water 111 % of control | dose: 200.0 mg/kg/injection, schedule: Q01DX009 (ip), vehicle: water 92 % of control | dose: 200.0 mg/kg/injection, schedule: Q04DX003 (ip), vehicle: water 97 % of control | dose: 400.0 mg/kg/injection, schedule: Q01DX009 (ip), vehicle: water 91 % of control | dose: 400.0 mg/kg/injection, schedule: Q04DX003 (ip), vehicle: water 97 % of control

CN(C)c1ccc(P(c2ccc(N(C)C)cc2)c2ccc(N(C)C)cc2)cc1
inactive: dose: 3.12 mg/kg/injection, schedule: Q01DX009 (ip), vehicle: Klucel (hydroxypropylcellulose) (HPC) 96 % of control | dose: 6.25 mg/kg/injection, schedule: Q01DX009 (ip), vehicle: Klucel (hydroxypropylcellulose) (HPC) 88 % of control | dose: 12.5 mg/kg/injection, schedule: Q01DX009 (ip), vehicle: Klucel (hydroxypropylcellulose) (HPC) 88 % of control | dose: 12.5 mg/kg/injection, schedule: Q04DX003 (ip), vehicle: Klucel (hydroxypropylcellulose) (HPC) 91 % of control | dose: 25.0 mg/kg/injection, schedule: Q04DX003 (ip), vehicle: Klucel (hydroxypropylcellulose) (HPC) 113 % of control | dose: 50.0 mg/kg/injection, schedule: Q04DX003 (ip), vehicle: Klucel (hydroxypropylcellulose) (HPC) 86 % of control

C=C1C2CCC3(C)C(c4ccoc4)OC(=O)CC13OC1CC(=O)C(C)(C)C(CC(=O)OC)C12C (stereo not given)
inactive: dose: 2.0 mg/kg/injection, schedule: Q01DX009 (ip), vehicle: Klucel (hydroxypropylcellulose) (HPC) 100 % of control | dose: 4.0 mg/kg/injection, schedule: Q01DX009 (ip), vehicle: Klucel (hydroxypropylcellulose) (HPC) 100 % of control | dose: 8.0 mg/kg/injection, schedule: Q01DX009 (ip), vehicle: Klucel (hydroxypropylcellulose) (HPC) 96 % of control | dose: 16.0 mg/kg/injection, schedule: Q01DX009 (ip), vehicle: Klucel (hydroxypropylcellulose) (HPC) 100 % of control | dose: 32.0 mg/kg/injection, schedule: Q01DX009 (ip), vehicle: Klucel (hydroxypropylcellulose) (HPC) 89 % of control

Nc1cc2nnc(-c3ccccc3)c(-c3ccccc3)n2n1
inactive: dose: 100.0 mg/kg/injection, schedule: Q04DX002 (ip), vehicle: saline with Tween-80 89 % of control | dose: 400.0 mg/kg/injection, schedule: Q04DX002 (ip), vehicle: saline with Tween-80 86 % of control

COc1ccc(/C=N/NC(=O)C[n+]2ccccc2)c(OC)c1
inactive: [1] 104 % of control | dose: 25.0 mg/kg/injection, schedule: Q04DX003 (ip), vehicle: saline with Tween-80 118 % of control | dose: 50.0 mg/kg/injection, schedule: Q01DX009 (ip), vehicle: saline with Tween-80 109 % of control | dose: 50.0 mg/kg/injection, schedule: Q04DX003 (ip), vehicle: saline with Tween-80 104 % of control | [2] 100 % of control | [3] 104 % of control

C#CCSC(=N)N
inactive: dose: 12.5 mg/kg/injection, schedule: Q01DX009 (ip), vehicle: saline 100 % of control | dose: 33.0 mg/kg/injection, schedule: Q01DX009 (ip), vehicle: saline 109 % of control and 118 % of control | dose: 37.5 mg/kg/injection, schedule: Q04DX003 (ip), vehicle: saline 109 % of control | dose: 50.0 mg/kg/injection, schedule: Q01DX009 (ip), vehicle: saline 100 % of control and 115 % of control | dose: 75.0 mg/kg/injection, schedule: Q04DX003 (ip), vehicle: saline 109 % of control

c1ccc2c[n+](CCCCCCCCCC[n+]3ccc4ccccc4c3)ccc2c1
inactive: dose: 1.0 mg/kg/injection, schedule: Q01DX009 (ip), vehicle: saline 104 % of control | dose: 2.0 mg/kg/injection, schedule: Q01DX009 (ip), vehicle: saline 113 % of control | dose: 2.5 mg/kg/injection, schedule: Q01DX009 (ip), vehicle: saline 110 % of control and 115 % of control | dose: 2.6 mg/kg/injection, schedule: Q01DX009 (ip), vehicle: saline 120 % of control | dose: 4.0 mg/kg/injection, schedule: Q01DX009 (ip), vehicle: saline 110 % of control | dose: 5.0 mg/kg/injection, schedule: Q01DX009 (ip), vehicle: saline 107 % of control | dose: 10.0 mg/kg/injection, schedule: Q01DX009 (ip), vehicle: saline 103 % of control and 112 % of control

Cn1c(CC(O)(C(F)(F)F)C(F)(F)F)cc2ccccc21
inactive: dose: 100.0 mg/kg/injection, schedule: Q01DX001 (ip), vehicle: other 87 % of control | dose: 400.0 mg/kg/injection, schedule: Q01DX001 (ip), vehicle: other 95 % of control

NC(Cc1ccc(O)cc1)C(=O)O (stereo not given)
inactive: [2] 100 % of control | [3] 100 % of control | [4] 92 % of control | dose: 200.0 mg/kg/injection, schedule: Q04DX003 (ip), vehicle: saline with Tween-80 91 % of control | dose: 400.0 mg/kg/injection, schedule: Q04DX003 (ip), vehicle: saline with Tween-80 95 % of control

CC1OC(OC2CCCc3c(O)c4c(c(O)c32)C(=O)c2ccccc2C4=O)CC(N)C1O (stereo not given)
inactive: dose: 0.25 mg/kg/injection, schedule: Q01DX009 (ip), vehicle: water 110 % of control | dose: 0.5 mg/kg/injection, schedule: Q01DX009 (ip), vehicle: water 105 % of control | dose: 1.0 mg/kg/injection, schedule: Q01DX009 (ip), vehicle: water 98 % of control | dose: 2.0 mg/kg/injection, schedule: Q01DX009 (ip), vehicle: water 110 % of control and 115 % of control | dose: 4.0 mg/kg/injection, schedule: Q01DX009 (ip), vehicle: water 108 % of control and 113 % of control | dose: 8.0 mg/kg/injection, schedule: Q01DX009 (ip), vehicle: water 108 % of control | dose: 16.0 mg/kg/injection, schedule: Q01DX009 (ip), vehicle: water 105 % of control

COc1ccc(CCN2COc3ccc4ccc(=O)oc4c3C2)cc1OC
inactive: dose: 132.0 mg/kg/injection, schedule: Q01DX009 (ip), vehicle: saline with Tween-80 100 % of control | [4] 115 % of control | dose: 300.0 mg/kg/injection, schedule: Q01DX009 (ip), vehicle: saline with Tween-80 115 % of control
